IC50, Activity and Stability data for 21 compounds are collected here from ChEMBL document CHEMBL4602662, “Orthoscuticellines A-E, β-Carboline Alkaloids from the Bryozoan Orthoscuticella ventricosa Collected in Australia” (J Nat Prod, 2020).

Molecules are shown by their SMILES. Bounds are passed on as bounds.

What is called IC50 is the midpoint of a concentration-inhibition curve. Low readings indicate greater potency, high ones weaker potency.

Data set [1] concerns Plasmodium falciparum. In words: Antiplasmodial activity against Plasmodium falciparum K1. In kind it is functional, organism-based.
In data set [2] the test system is HEK293. In words: Cytotoxicity against HEK293 cells at 40 uM incubated for 72 hrs by resazurin dye based assay relative to control. In kind it is cell-based. As to conditions: human, hek293, 72 h.
Data set [3] relates to HEK293. The data set is described as follows: Cytotoxicity against HEK293 cells incubated for 72 hrs by resazurin dye based assay. In kind it is cell-based. The following applies: Homo sapiens, HEK293, 72 h.
For data set [4], the system named is Plasmodium falciparum. In words: Antiplasmodial activity against chloroquine-sensitive Plasmodium falciparum 3D7 incubated for 72 hrs by DAPI-staining based imaging analysis. In kind it is functional, organism-based. The following applies: 3D7, 72 h.
Data set [5] in a line: Stability of compound. In kind it is physicochemical.

In the data set with Plasmodium falciparum [1], `OCCNc1nccc2c1[nH]c1ccccc12` showed an IC50 of 1 to 18 µM.
Turning to `CCc1nccc2c1[nH]c1ccccc12`, the Activity in the data set with HEK293 [2] was 35%. Further, the IC50 is more than 40 µM in the data set with HEK293 [3] and 18 µM in the data set on Plasmodium falciparum [4].
`CN(C)CCc1nccc2c1[nH]c1ccccc12`: in data set [5], the Stability entry is “Unstable”.
As to `CN(C)CCCNc1nccc2c1[nH]c1ccccc12`, the IC50 with Plasmodium falciparum [1] fell in the range of 1 to 18 µM.
Still for that read-out and setting: the result for `CCN(CC)C1CCN(c2nccc3c2[nH]c2ccccc23)CC1` reads 1 to 18 µM; that for `CCN(CC)CCCNc1nccc2c1[nH]c1ccccc12`, 1 to 18 µM; that for `c1ccc2c(c1)[nH]c1c(N3CCOCC3)nccc12`, 1 to 18 µM.
On the same count and under the same terms, the result for `c1ccc2c(c1)[nH]c1c(N3CCC(N4CCCCCC4)CC3)nccc12` reads 1 to 18 µM.
In the data set with HEK293 [2], `c1ccc2c(c1)[nH]c1c([C@H]3CC[C@@H]3c3nccc4c3[nH]c3ccccc34)nccc12` registered an Activity of 29%. Also, the IC50 with HEK293 [3] and in the data set on Plasmodium falciparum [4] was more than 40 µM throughout.
`c1ccc2c(c1)[nH]c1c(N3CCCCC3)nccc12`: the IC50 with Plasmodium falciparum [1] fell in the range of 1 to 18 µM.
Same read-out and setting: the result for `c1ccc2c(c1)[nH]c1c(N3CCC(N4CCCC4)CC3)nccc12` reads 1 to 18 µM.
As to `OCC(O)c1nccc2c1[nH]c1ccccc12` (stereo not drawn), the Activity with HEK293 [2] is listed as 37%. The half-maximal inhibitory concentration (IC50) in the data set with HEK293 [3] is more than 40 µM; in the data set on Plasmodium falciparum [4] it was 14 µM.
The compound `c1ccc2c(c1)[nH]c1c(N3CCC(N4CCCCC4)CC3)nccc12` displayed an IC50 in the data set on Plasmodium falciparum [1] of 1 to 18 µM.
Same read-out and setting: in the case of `CCN(CC)CCCC(C)Nc1nccc2c1[nH]c1ccccc12` (stereo not drawn) it was 1 to 18 µM.
On to `OC1CCCN(c2nccc3c2[nH]c2ccccc23)C1` (stereo not drawn), for which, in the data set on Plasmodium falciparum [1], the IC50 was 1 to 18 µM.
With `c1ccc2c(c1)[nH]c1c([C@H]3CC[C@H]3c3nccc4c3[nH]c3ccccc34)nccc12`, the IC50 with HEK293 [3] and in the data set with Plasmodium falciparum [4] was 10 µM throughout.
In the case of `CN1CCN(c2nccc3c2[nH]c2ccccc23)CC1`, in the data set with Plasmodium falciparum [1], the IC50 is 1 to 18 µM.
With `CCc1ncc(S(C)(=O)=O)c2c1[nH]c1ccccc12`, in the data set with HEK293 [2], the Activity was 17%. For the same compound, the IC50 with HEK293 [3] is more than 40 µM; in the data set on Plasmodium falciparum [4] it was 21 µM.
The matching figures for `O=S(=O)(O)CCc1nccc2c1[nH]c1ccccc12`: 30%, more than 40 µM and 12 µM.
Turning to `C[C@H]1[C@H](OC(=O)CCC(=O)O)O[C@@H]2O[C@@]3(C)CC[C@H]4[C@H](C)CC[C@@H]1[C@@]24OO3` [ARTESUNATE], in the data set with Plasmodium falciparum [4], it took 0.0003 µM to reach half-maximal inhibition (IC50).
`CCN(CC)CCCC(C)Nc1ccnc2cc(Cl)ccc12` (stereo not drawn) [CHLOROQUINE] showed an Activity in the data set with HEK293 [2] of 40%. For the same compound, the IC50 in the data set on HEK293 [3] is more than 40 µM.
